What was measured:
Settings in all cases: 72 h
MV4-11 [1] = system: MV4-11
How it was run: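 Each of fifteen myeloid leukaemia cell lines was seeded in RPMI 1640 at a density titrated to its linear growth range. The cells were incubated for 72 h at 37 °C and 5% CO2 with compounds at five tenfold doses from 1 to 10,000 nM, in duplicate. After ATP luminescence was normalised to vehicle and to a positive control at 10 µM, four-parameter log-logistic curves were fitted. These curves gave the IC50.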

HL-60 [2] = assay: cell viability (% survival relative to DMSO control); higher = less cytotoxic
How it was run: (§1)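 Area under the curve, where listed, was derived from four-parameter log-logistic fits with drc and PharmacoGx. These fits used CellTiter-Glo viability from HL-60 cells in RPMI 1640 with 10% FBS, normalised to DMSO wells and wells holding 10 μM proteasome inhibitor. The full library was rescreened on 384-well plates in duplicate at five tenfold concentrations, 1–10,000 nM, with DMSO or 100 nM of one of three metabolic inhibitors, for 72 h at 37 °C, 5% CO2.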

BV-173 = assay: cell viability (% survival relative to DMSO control, bortezomib = 0%); higher = less cytotoxic
How it was run: (§2)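 Percent survival figures are means of duplicate wells. They were obtained by CellTiter-Glo luminescence after 10 AML and 5 CML cell lines spent 72 h at 37 °C with 5% CO2 in 384-well plates with compounds at 1, 10, 100, 1000 or 10000 nM. Vehicle was set to 100% and a 10 µM positive control to 0%.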

HEL = assay: as above
How it was run: as §2

HL-60 [3] = assay: as above
How it was run: as §2

K-562 = assay: as above
How it was run: as §2

KCL-22 = assay: as above
How it was run: as §2

KG-1 = assay: as above
How it was run: as §2

KU-812 = assay: as above
How it was run: as §2

LAMA-84 = assay: as above
How it was run: as §2

ML-2 = assay: as above
How it was run: as §2

MOLM-13 = assay: as above
How it was run: as §2

MV4-11 [4] = assay: as above
How it was run: as §2

Mono-Mac-6 = assay: as above
How it was run: as §2

NOMO-1 = assay: as above
How it was run: as §2

SHI-1 = assay: as above
How it was run: as §2

THP-1 = assay: as above
How it was run: as §2

HL-60 [5] = assay: area under dose-response curve (viability, 1 nM-10 uM) (fraction (0-1)); higher = more sensitive
How it was run: as §1

C[C@](N)(Cc1ccc(O)cc1)C(=O)O [Metirosine]
Settings | IC50 (cell viability) [µM]
MV4-11 [1] | > 10

cell viability [%], HL-60 [2]
Settings | 0.001 µM | 0.01 µM | 0.1 µM | 1 µM | 10 µM
co-treatment: AZD3965 100 nM | 101 | 101.8 | 99 | 95.8 | 97.76
co-treatment: DMSO vehicle | 108 | 104 | 101 | 101 | 103
co-treatment: GSK2194069 100 nM | 105 | 104 | 98.9 | 93.8 | 99.6
co-treatment: pictilisib 100 nM | 116 | 105 | 98.9 | 81.1 | 105

Settings | area under dose-response curve, co-treatment: AZD3965 100 nM | area under dose-response curve, co-treatment: DMSO vehicle | area under dose-response curve, co-treatment: GSK2194069 100 nM | area under dose-response curve, co-treatment: pictilisib 100 nM | cell viability, 1 nM [%] | cell viability, 10 nM [%] | cell viability, 100 nM [%] | cell viability, 1000 nM [%] | cell viability, 10000 nM [%]
BV-173 | – | – | – | – | 98.4 | 89.1 | 115 | 86 | 114
HEL | – | – | – | – | 101 | 92.6 | 99.6 | 94.7 | 108
HL-60 [3] | – | – | – | – | 99.2 | 93.7 | 89.7 | 97.6 | 107
HL-60 [5] | < 0.0301 | < 0.0301 | < 0.0301 | < 0.0301 | – | – | – | – | –
K-562 | – | – | – | – | 113 | 90.2 | 101 | 107 | 103
KCL-22 | – | – | – | – | 107 | 95.1 | 96.9 | 91.8 | 99.7
KG-1 | – | – | – | – | 105 | 93.9 | 94.7 | 89.3 | 107
KU-812 | – | – | – | – | 89.4 | 91.1 | 102 | 91.9 | 96.5
LAMA-84 | – | – | – | – | 102 | 108 | 107 | 105 | 99.2
ML-2 | – | – | – | – | 91.1 | 96.7 | 107 | 97.9 | 93.5
MOLM-13 | – | – | – | – | 94.4 | 81.5 | 82.9 | 94.6 | 95.7
MV4-11 [4] | – | – | – | – | 107 | 87.3 | 92.3 | 107 | 101
Mono-Mac-6 | – | – | – | – | 99.2 | 101 | 107 | 92.9 | 104
NOMO-1 | – | – | – | – | 95 | 96.6 | 103 | 93.6 | 102
SHI-1 | – | – | – | – | 103 | 105 | 101 | 101 | 91.4
THP-1 | – | – | – | – | 98.3 | 99.5 | 105 | 94.3 | 101

Source: the supplement of paper PMC8671470
